By IC50 is commonly meant the concentration that inhibits the measured activity by half.

The structures appear in SMILES notation.

The test system of assay [1] is caspase-3 deficient (caspase 3KO) mouse embryonic fibroblasts. Description: MTT cytotoxicity assay, caspase 3KO MEFs. In kind it is cell-based. As to conditions: Fibroblast, 72 h, 3 days, read-out: Means of IC50. The method, then:
(§1) The test compound of pomiferin is dissolved in DMSO at a final concentration of 100 mmol/L and stored at −20° C. Cytotoxicity is assessed using the 3-(4,5-dimethylthiazol-2-yl)-2,5-diphenyltetrazolium bromide assay as previously described^29. 2500 of caspase wild-type (caspase WT), caspase-3 deficient (caspase 3KO), caspase-7 deficient (caspase 7KO), caspase-3/-7 deficient (caspase 3/7 DKO), caspase-8 deficient (caspase 8KO), Bax-Bak wild-type (Bak-Bak WT) and Bax-Bak double knock out (Bak-Bak DKO) mouse embryonic fibroblasts (MEFs) are seeded on 96-well plates per well. After overnight pre-incubation, the cells are exposed to different concentrations of pomiferin (namely 100, 50, 25, 12.5, 6.25, 3.125, 1.5625, 0.78, 0.39, 0.195, 0.079, 0.039 μmol/L) for 3 days. Subsequently, 10 μL of MTT reagents is added to each well and incubated at 37° C. for 4 hours, followed by the addition of 100 μL solubilization buffer (10% SDS in 0.01 mol/L HCl) and overnight incubation. Absorbance at 585 nm is determined from each well on the following day. The percentage of cell viability is calculated using the following formula: Cell viability (%)=Cells numbertreated/Cells numberDMSO control×100. Data is obtained from three independent experiments.
On the technique in general: Tetrazolium assays rely on reduction of a dye to a coloured formazan, in cell work by metabolically active cells.

Assay [2] relates to Bax-Bak wild-type mouse embryonic fibroblasts. Description: MTT cytotoxicity assay, Bax-Bak WT MEFs. The class given is cell-based. As to conditions: Fibroblast, 72 h, 3 days, read-out: Means of IC50. The method, then:
as §1

In assay [3] the test system is HCT116 p53+/− (heterozygous) isogenic colon cancer cells. In words: MTT cytotoxicity assay, HCT116 p53+/−. In kind it is cell-based. As to conditions: Homo sapiens, HCT-116, 72 h, 3 days, read-out: Means of IC50. On the procedure:
as §1, with “4000” for “2500”, “drug-resistant HCT-116 p53+/+, HCT-116 p53−/−” for “caspase wild-type (caspase WT), caspase-3 deficient (caspase 3KO), caspase-7 deficient (caspase 7KO), caspase-3/-7 deficient (caspase 3/7 DKO), caspase-8 deficient (caspase 8KO), Bax-Bak wild-type (Bak-Bak WT)”, “HCT-116 p53−/− isogenic colon cancer cells” for “Bax-Bak double knock out (Bak-Bak DKO) mouse embryonic fibroblasts (MEFs)”, “[…])” for “μmol/L)”

The target in the next assay is T1, Ca2+ ATPase (SERCA1A) (Oryctolagus cuniculus, UniProt P04191).
T1 construct: (SERCA1A) is prepared from female rabbit hind leg muscle; from tissue; host or cells: female rabbit hind leg (skeletal) muscle, sarcoplasmic reticulum membranes
Description: Measurement of SERCA activity (enzyme-coupled ATPase assay). In kind it is biochemical. As to conditions: rabbit skeletal muscle SR membranes; FIG. 5B. On the procedure:
Purified Ca^2+ ATPase (SERCA1A) is prepared from female rabbit hind leg muscle^27. ATPase activity is determined using the enzyme-coupled method utilizing pyruvate kinase and lactate dehydrogenase as previously described in Michelangeli et al. (1990). All SERCA inhibition data are fitted to the allosteric dose versus effect equation using Fig P (Biosoft):
Activity=minimum activity+(maximum activity−minimum activity)/(1+([I]/IC50)P).

The subject of assay [4] is Atg7 wild-type (Atg7+/+) mouse embryonic fibroblasts. Description: Endogenous autophagic LC3 puncta, Atg7 wild-type MEFs. The class given is cell-based. As to conditions: 2 μM, FIG. 6A. The method, then:
Endogenous LC3 puncta formation is quantified as previously described^2. In brief, both Atg7 wild-type and deficient mouse embryonic fibroblasts (MEFs) grown on coverslips in a 6-well plate are treated with indicated concentrations of pomiferin. Both Atg7 wild-type and deficient mouse embryonic fibroblasts are then fixed in 4% paraformaldehyde for 20 minutes at room temperature and then rinsed with PBS. After washing with PBS, the cells are then incubated with anti-LC3 (1:200) in TBST (100 mM Tris HCl, pH 7.5, 150 mM NaCl, 0.05% Tween 20 and 5% BSA) overnight at 4. After washing with PBS, the cells are incubated with anti-mouse secondary antibody (TRITC) 1:200 in TBST containing 5% BSA at 37 for 1 hrs in the dark. The coverslips are then mounted with FluorSave™ mounting media (Calbiochem, San Diego, Calif., USA) for fluorescence imaging and localization of LC3 autophagosomes are captured under the API Delta Vision Live-cell Imaging System (Applied Precision Inc., GE Healthcare Company, Washington, USA). To quantify for autophagy, the percentage of cells with punctate TRITC-LC3 fluorescence is calculated by counting the number of the cells with punctate TRITC-LC3 fluorescence in TRITC-positive cells. A minimum of 150 cells from 3 randomly selected fields is scored.

For assay [5], the system named is caspase WT, 3KO, 7KO, 3/7 DKO, 8KO, Bax-Bak WT and Bax-Bak DKO MEFs. In words: Endogenous autophagic LC3 puncta in apoptosis-resistant MEFs. The class given is cell-based, mouse. As to conditions: wild-type and apoptosis-resistant MEFs; FIG. 7. The method, then: Endogenous LC3 puncta formation is quantified as previously described^2. In brief, caspase wild-type (caspase WT), caspase-3 deficient (caspase 3KO), caspase-7 deficient (caspase 7KO), caspase-3/-7 deficient (caspase 3/7 DKO), caspase-8 deficient (caspase 8KO), Bax-Bak wild-type (Bak-Bak WT) and Bax-Bak double knock out (Bak-Bak DKO) MEFs are grown on coverslips in a 6-well plate are treated with […] of pomiferin. Both wild-type and deficient MEFs are then fixed in 4% paraformaldehyde for 20 minutes at room temperature and then rinsed with PBS. After washing with PBS, the cells are then incubated with anti-LC3 (1:200) in TBST (100 mM Tris HCl, pH 7.5, 150 mM NaCl, 0.05% Tween 20 and 5% BSA) overnight at 4. After washing with PBS, the cells are incubated with anti-mouse secondary antibody (TRITC) 1:200 in TBST containing 5% BSA at 37 for 1 hrs in the dark. The coverslips are then mounted with FluorSave™ mounting media (Calbiochem, San Diego, Calif., USA) for fluorescence imaging and localization of LC3 autophagosomes are captured under the API Delta Vision Live-cell Imaging System (Applied Precision Inc., GE Healthcare Company, Washington, USA).

T1 sequence (P04191 1-994 isoform P04191-2): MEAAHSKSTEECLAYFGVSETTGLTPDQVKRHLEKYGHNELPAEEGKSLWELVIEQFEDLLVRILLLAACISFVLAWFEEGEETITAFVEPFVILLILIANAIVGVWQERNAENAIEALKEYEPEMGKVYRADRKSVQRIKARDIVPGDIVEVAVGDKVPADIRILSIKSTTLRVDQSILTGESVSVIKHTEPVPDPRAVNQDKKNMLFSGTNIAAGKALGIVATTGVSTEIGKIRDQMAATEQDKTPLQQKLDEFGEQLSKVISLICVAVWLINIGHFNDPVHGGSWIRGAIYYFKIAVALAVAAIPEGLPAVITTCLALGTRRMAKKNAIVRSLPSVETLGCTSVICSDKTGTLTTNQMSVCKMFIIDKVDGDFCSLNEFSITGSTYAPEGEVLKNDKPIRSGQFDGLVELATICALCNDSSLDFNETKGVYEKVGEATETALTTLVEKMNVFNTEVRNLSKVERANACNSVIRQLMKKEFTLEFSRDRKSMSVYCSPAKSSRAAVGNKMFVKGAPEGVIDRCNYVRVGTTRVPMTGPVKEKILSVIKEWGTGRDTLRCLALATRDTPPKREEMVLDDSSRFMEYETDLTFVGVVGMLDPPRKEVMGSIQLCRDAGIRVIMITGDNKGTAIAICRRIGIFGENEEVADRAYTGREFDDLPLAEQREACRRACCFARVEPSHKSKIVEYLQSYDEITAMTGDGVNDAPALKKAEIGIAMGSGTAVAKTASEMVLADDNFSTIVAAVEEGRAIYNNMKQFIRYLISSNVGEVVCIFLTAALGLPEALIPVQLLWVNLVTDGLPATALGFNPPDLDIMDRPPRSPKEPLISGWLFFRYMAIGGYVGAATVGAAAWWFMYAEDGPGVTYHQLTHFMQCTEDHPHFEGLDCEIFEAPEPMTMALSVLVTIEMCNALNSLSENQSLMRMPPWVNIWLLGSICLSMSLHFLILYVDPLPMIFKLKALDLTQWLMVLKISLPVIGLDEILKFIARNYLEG

As for `CC(C)=CCc1c2c(c3occ(-c4ccc(O)c(O)c4)c(=O)c3c1O)C=CC(C)(C)O2` [pomiferin], the IC50 in assay [1] is 2130 nM; in assay [2], 440 nM; in assay [3], 5580 nM. The SERCA1A pump inhibition result at Ca2+ ATPase (SERCA1A) was “inhibited by pomiferin in a dose-dependent manner”. The TRITC-LC3 puncta formation result in assay [4] is “induce TRITC-LC3 puncta formation”. For the same compound, the “autophagy induction (endogenous LC3 puncta)” value in assay [5] is “able to induce autophagy in all these wild-type and apoptosis-resistant cells”.

For the origin of these results see patent US20170014375A1, “PHARMACEUTICAL COMPOSITION COMPRISING EFFECTIVE DOSE OF POMIFERIN FOR TREATING CANCERS” (Macau University of Science and Technology, priority 2015, published 2017).
